From patent US20200316096A1, “COMBINATION OF DIET AND DRUG THERAPY FOR TREATING CANCER” (Trustees of Boston College, priority 2019, published 2020)

Columns and labels:
[1] = Toxicity and body weight observations in DON treated mice; type: in vivo, mouse
Protocol: FIG. 11. Body weights of VM-M3 tumour bearing mice. VM-M3/Fluc tumour fragments were implanted as described in FIGS. 1A-1F. Body weight was determined every alternate day. Initial and final body weight data are presented. Mice fed the SD-UR began to drop body weight on the day of termination due to tumour burden. Mice fed the KD-R maintained a 15-18% body weight reduction throughout the experiment due to reduced caloric intake. Initial and final body weights were similar in the SD-UR and the SD-UR+DON mice (n=15 mice/group). Final body weights were lower than initial body weights in the KD-R and the KD-R+DON mice (n=15 mice/each group). Values are expressed as the mean+/−SEM and a two tailed student's t-test was performed between the initial and final values of each group (*=p<0.01).
It is proposed that issues with DON toxicity arise when there is an appreciable competition for glutamine between host and tumour. There is also increasing evidence supporting the protective role of glutamine supplementation for cancer patients^46. Since tumour consumption of glutamine is dissipative, glutamine supplementation might not increase tumour growth^46. However, additional preclinical studies are needed to determine if glutamine supplementation could be used together with DON. The present disclosure provides that strategies for managing toxicity of a therapeutically effective drug would be as important as developing a new drug.
The following studies were to determine if the simultaneous targeting of glucose and glutamine, while under therapeutic ketosis, could manage late stage growth and enhance survival without toxicity in two different syngeneic mouse models of GBM. DON was administered 7 days after tumour implantation, which is considered late for the VM-M3/Fluc tumour, as neurological signs and symptoms first appear at 10 to 12 days post implantation with morbidity occurring in 100% of the tumour-bearing mice by 14-18 days^2. Additional results were obtained in C57BL/6J inbred mice bearing the syngeneic CT-2A high-grade stem cell glioma^32. […]

Iba-1 = Iba-1 expression in VM-M3 brain tumour tissue (immunohistochemistry, western blot); type: in vivo, mouse (VM/Dk); conditions: DON treated brain tumour tissue; immunohistochemistry and western blot
Protocol: FIGS. 6A-6C. Restricted Ketogenic diet with DON reduces the Iba-1 expression in the VM-M3 brain tumour tissue. Immunohistochemistry (IHC) of Iba-1 was performed in formalin fixed brain tissues as described in Methods. […] Western blot analysis of Iba-1 protein expression in the tumours indicates a decrease in the expression of Iba-1 in the DON treated tumours (n=3 mouse tumour brain tissue) in comparison to SD-UR (n=3 mouse tumour brain tissue). A decrease in expression was also seen for KD-R mice (n=2 mouse tumour brain tissue). Normal brain (NB) was used as a negative control tissue, FIGS. 6B and 6C.
Iba-1 protein expression was analyzed in the VM-M3 brain tumour tissue by immunohistochemistry and western blot. Iba-1 was heavily expressed in VM-M3 tumour and normal microglia/macrophages, as we described previously^37. The KD-R reduced the expression of Iba-1 as shown in both immunohistochemistry and western blot (FIGS. 6A and 6B). […]
Approximately 100 μg of total protein from each tissue sample was denatured with SDS-PAGE sample buffer [63 mmol/L Tris-HCl (pH 6.8), 10% glycerol, 2% SDS, 0.0025% bromphenol blue, and 5% 2-mercaptoethanol] and was resolved by SDS-PAGE on 4% to 12% Bis-Tris gels (Invitrogen). […] Each membrane was stripped and reprobed for β-actin as an internal loading control and the ratio of the Iba-1 to β-actin was analyzed by scanning densitometry (FluorChem 8900 Software).

In the case of `[N-]=[N+]=CC(=O)CC[C@H](N)C(=O)O` [DON, 6-diazo-5-oxo-L-norleucine], the “toxic effects in non-tumour-bearing VM/Dk mice” value ([1]; DON at the concentrations used in this study) is reported as “no toxic effects”, the “initial versus final body weight” value ([1]; VM-M3 tumour bearing mice, n=15 mice/group) is reported as “similar” and the “toxicity in DON treated tumour-bearing mice” value ([1]; until end of study, when mild muscle loss was observed in some mice) is reported as “No noticeable toxicity”. The Iba-1 expression (Iba-1) was “significant reduction”.
